From patent US20120238511A1, “2-DEOXY-D-GLUCOSE FORMULATIONS FOR PREVENTION OR TREATMENT OF NEURODEGENERATIVE DISEASES” (University of Southern California, priority 2011, published 2012)

System: triple transgenic AD (3×Tg-AD) mouse model
Test: 2-DG diet in triple transgenic Alzheimer's mouse model
Type: in vivo
Details: low-density gene array (LDA array) analyses
Protocol: It has been shown that mitochondrial bioenergetic deficits precede Alzheimer's disease (AD) pathology in the triple transgenic AD (3×Tg-AD) mouse model. […] In the current study, the impact of 2-deoxy-D-glucose (2-DG), a compound known to regulate glucose metabolism and induce ketogenesis, on both brain bioenergetics and AD pathology was evaluated.
3×Tg-AD female at 6 month were fed with either a regular diet (AIN-93G) or diet containing 0.04% 2-DG for 7 weeks.

With `OCC1OC(O)CC(O)C1O` [2-DG, 2-deoxy-D-glucose] the Tau phosphorylation was “reduced” and the amyloid production was “decreased”.
